We go through three compounds from US20250302797A1, “COMBINATION THERAPIES FOR TREATING INFLAMMATION” (Flagship Pioneering Innovations VI, LLC, priority 2022, published 2025).

Assay [1] concerns LPS-injected mice. The assay is described as follows: LPS-induced systemic inflammation mouse model: blood cytokine levels. The class given is in vivo, C57Bl/6 mice. The following applies: intraperitoneal 1 hour prior to LPS (1 mg/kg); Dexamethasone 5 mg/kg or Luteolin+Gamma-mangostin 4+4.5 mg/kg; serum or plasma. Here is the method:
C57Bl/6 male mice, 6-8 weeks old, weighing 22±2 g were randomly divided into groups of 5-6 each. Sham animals were injected intra-peritoneally with PBS only. All other groups were intraperitoneally injected with either Vehicle control, Dexamethasone (5 mg/kg), or a combination of Luteolin+Gamma-mangostin (4+4.5 mg/kg) at 1 hour prior to injection with LPS (1 mg/kg), an agent known to trigger systemic inflammation. After LPS injection, blood was collected at different time points: 30 min, 2 h, 4 h and 24 h and the processed serum or plasma were used for further cytokine analysis through LUMINEX or Ella Automated Immunoassay System (Protein Simple).

Assay [2] has as its system oxazolone-induced ear swelling in mice. The assay can be described thus: Oxazolone-induced dermatitis mouse model: ear thickness. The class given is in vivo, BALB/c mice. Conditions: topical 20 μL, 5 mg/mL, 30 minutes before and 15 minutes after oxazolone challenge; measured at 24 hours. Here is the method: (§1) Male BALB/c mice weighing 22±2 g are used and randomly divided into groups of 5 each. Sham treatment group receive no oxazolone sensitization and challenge, but PBS, plus treated with vehicle (Acetone:ethanol 1:1). All other groups' animals were sensitized by applying oxazolone (100 μL, 1.5% in acetone) onto their preshaved abdominal surface on Day 0, and challenged by oxazolone (1%, 20 μL/ear) seven (7) days later. 20 μL of either Vehicle, Dexamethasone (5 mg/mL; anti-inflammatory positive control), or a combination of Luteolin (1.6-9.6 mg/mL)+Gamma-mangostin (1.2-7.2 mg/mL) were applied topically to the anterior and posterior surfaces of the right ear 30 minutes before and 15 minutes after oxazolone challenge. Left ear was unstimulated and treated as a control.
(§2) The right and left ear thickness of each mouse were measured at 24 hours after oxazolone challenge as an index of inflammation. The right ear was harvested and snap frozen for cytokine gene expression analysis.

For assay [3], the system named is cytokine gene expression in ears of mice stimulated with oxazolone. The assay is described as follows: Oxazolone-induced dermatitis mouse model: cytokine gene expression in ear. The assay is classed as in vivo, BALB/c mice. The following applies: right ear; topical; Dexamethasone 5 mg/mL or Luteolin (1.6-9.6 mg/mL)+Gamma-mangostin (1.2-7.2 mg/mL). Here is the method: as §1, §2

Assay [4] relates to Differentiated THP-1 macrophages stimulated with IFN-gamma and LPS. The assay is described as follows: THP1 cytokine secretion assay. The assay is classed as cell-based, Human. Conditions: for greatest IL6 inhibition to: IL6 secretion; for greatest TNFa inhibition to: TNFa secretion. As for the experimental part: Human THP-1 cells were plated and differentiated into macrophages through treatment with phorbol 12-myristate 13-acetate and beta-mercaptoethanol for 72 hours. Differentiated THP-1 macrophages were then stimulated with IFN-gamma (20 ng/mL) and LPS (50 ng/mL) to induce an inflammatory response and co-treated with gamma-mangostin and/or luteolin at 0, 0.2, 0.5, 2, 5, 10 uM. Various secreted cytokines were measured from the media using the Ella Automated Immunoassay System (ProteinSimple).

[5] abbreviates: Gamma-mangostin alone at 10 uM (0-10 uM tested).
[6] abbreviates: Luteolin alone at 0.5 uM (0-10 uM tested).

Turning to `C[C@@H]1C[C@H]2[C@@H]3CCC4=CC(=O)C=C[C@]4(C)[C@@]3(F)[C@@H](O)C[C@]2(C)[C@@]1(O)C(=O)CO` [Dexamethasone], in assay [1], the “CXCL1 level, % of the Vehicle” value is reported as 57%; the “MIP1-beta level, % of the Vehicle” value stood at 29%; the “TNFa level, % of the Vehicle” value is 12%. Also, in assay [2], the “reduction in ear thickness compared to the Vehicle-treated ears” value stood at 29%. For the same compound, in assay [3], the “Ifng gene expression (% of Vehicle control)” value came out at 445%, the “Il1b gene expression (% of Vehicle control)” value was determined as 5%, the “Il4 gene expression (% of Vehicle control)” value came out at 24% and the “Il6 gene expression (% of Vehicle control)” value came to 33%. In assay [3], the “Il11 gene expression (% of Vehicle control)” value was 55%, the “Il13 gene expression (% of Vehicle control)” value came to 20% and the “Tnfa gene expression (% of Vehicle control)” value is reported as 14%.

Consider `CC(C)=CCc1c(O)cc2oc3cc(O)c(O)c(CC=C(C)C)c3c(=O)c2c1O` [Gamma-mangostin, Gamma-Mangostin], for which, in assay [4] (setting [5]), the “greatest IL6 inhibition to” value stood at 53% and the “greatest TNFa inhibition to” value was found to be 45%.

Turning to `O=c1cc(-c2ccc(O)c(O)c2)oc2cc(O)cc(O)c12` [Luteolin], in assay [4] (setting [6]), the “greatest IL6 inhibition to” value was found to be 53.7% and the “greatest TNFa inhibition to” value is given as 45.6%.
